One assay concerns the target menin protein (Homo sapiens (Human), UniProt O00255). As to the kind of experiment: biochemical. It counts as binding. In short, it runs like this: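 Test compounds displaced FAM-MM2 (2 nM) from 4 nM menin after 30 min equilibration at room temperature in PBS buffer containing bovine γ-globulin, 4% DMSO and Triton X-100. Binding was followed by fluorescence polarization. Competition curves were fitted by nonlinear regression to give IC50 and Ki.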

A short description of assay [1]: Cell growth inhibition, CellTiter-Glo Luminescent Cell Viability Assay. Type of assay: cell-based. In a few lines: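 Cells seeded at 2,000/well with serially diluted compound and cultured 4 days at 37 °C, 5% CO2. Viability read by CellTiter-Glo luminescence; IC50 derived from dose-response.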
(In general: Cellular ATP, detected with luciferase, serves as a proxy for viable cell number.)

In a further assay the test system is MOLM-13 cells. As to the kind of experiment: Mechanism of action studies, gene expression measured with qPCR in MOLM-13 cells. Type of assay: cell-based. As for the experimental part: (§1) MOLM-13 or MV4-11 cells were seeded in a 6-well plate at a density of 500,000 cells/well in 2 ml of culture medium and treated with either Cpd. No. 210 or Cpd. No. 366 at the concentrations as indicated. About 4 days after the treatments, cells were harvested and the expression of each gene was measured with qPCR.
MOLM-13 cells were seeded in a 6-well plate at a density of 500,000 cells/well in 2 ml of culture medium and treated with either Cpd. No. 366 or Cpd. No. 238 at the concentrations as indicated. About 66 hours after the treatment, cells were harvested and the expression of each gene was measured with qPCR.
(§2) MOLM-13 or MV4-11 cells were seeded in a 6-well plate at a density of 500,000-800,000 cells/well in 2 ml of culture medium and treated with either Cpd. No. 366 or Cpd. No. 215 at the concentrations as indicated. About 40 hours after the treatment, cells were harvested and the expression of each gene was measured with qPCR.
A general note: In qPCR the cycle at which signal appears reflects the starting amount.

The next assay relates to MV4-11 cells. The assay can be described thus: Mechanism of action studies, gene expression measured with qPCR in MV4-11 cells. It counts as cell-based. As to the method:
as §1, §2

Where [2] appears, read: MOLM-13, 96 h, read-out: Cell Growth Inhibition IC50 (μM) MOLM13.
Setting [3] is: MV4-11, 96 h, read-out: Cell Growth Inhibition IC50 (μM) MV4, 11.
[4] abbreviates: 4 days of treatment, dose dependent.
Where [5] appears, read: 66 hours of treatment, dose dependent.

The record followed here is patent US10899738B2 (THE REGENTS OF THE UNIVERSITY OF MICHIGAN, priority 2016, dated 2021).

In general, IC50 refers to the point on the concentration scale where inhibition reaches its midpoint.

Where two headings read alike, the source gives them in different places.

menin protein, sequence (O00255 whole entry): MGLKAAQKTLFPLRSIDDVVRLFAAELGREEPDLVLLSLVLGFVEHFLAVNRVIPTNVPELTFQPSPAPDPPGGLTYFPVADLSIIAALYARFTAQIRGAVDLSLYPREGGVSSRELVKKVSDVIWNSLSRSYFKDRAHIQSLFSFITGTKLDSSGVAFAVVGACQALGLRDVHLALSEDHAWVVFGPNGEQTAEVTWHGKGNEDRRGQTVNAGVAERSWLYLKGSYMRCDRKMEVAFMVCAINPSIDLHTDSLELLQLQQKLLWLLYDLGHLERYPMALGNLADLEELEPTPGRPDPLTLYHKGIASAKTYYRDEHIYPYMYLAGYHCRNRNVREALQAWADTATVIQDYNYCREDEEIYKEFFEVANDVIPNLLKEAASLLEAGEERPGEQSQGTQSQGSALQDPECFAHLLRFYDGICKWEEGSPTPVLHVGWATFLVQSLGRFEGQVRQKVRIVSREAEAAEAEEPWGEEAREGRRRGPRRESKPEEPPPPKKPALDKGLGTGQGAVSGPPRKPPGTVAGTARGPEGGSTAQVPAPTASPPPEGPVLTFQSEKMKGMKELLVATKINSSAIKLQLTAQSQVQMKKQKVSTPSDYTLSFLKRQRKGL

Regarding `CNC(=O)O[C@H]1CCC[C@@H]1C1(C2CCN(CC3CN(c4ccc(S(=O)(=O)c5ccncc5)cc4)C3)CC2)CN(C)Cc2ccccc21` (mixture of isomers) [Cpd. No. 210, rac-(1S,2R)-2-(2-methyl-4-(1-((1-(4-(pyridin-4-ylsulfonyl)phenyl)azetidin-3-yl)methyl)piperidin-4-yl)-1,2,3,4-tetrahydroisoquinolin-4-yl)cyclopentyl methylcarbamate], the figures for the IC50 (at menin protein (Menin Binding Affinity IC50 (μM)); in assay [1] (setting [2]); in assay [1] (setting [3])) were 0.004 µM, 0.135 ± 0.093 µM and 0.023 ± 0.016 µM, respectively. In addition, the MEIS1 gene expression result with MOLM-13 cells (4 days of treatment) and in the assay with MV4-11 cells (4 days of treatment) was “reduced” throughout. Moreover, the HOX7 gene expression entry with MOLM-13 cells (setting [4]) was “reduced”; with MV4-11 cells (4 days of treatment) it was “not as robust as those of HOX10”. Also, the HOX10 gene expression entry in the assay on MOLM-13 cells (setting [4]) and in the assay with MV4-11 cells (setting [4]) was “reduced” each time. Also, the MYB gene expression result in the assay on MV4-11 cells (4 days of treatment) is “no effect”.
In the case of `CNC(=O)O[C@H]1CCC[C@@H]1C(Cn1ccnc1)(c1ccccc1)C1CCN(CC2CN(c3ccc(C#N)cc3)C2)CC1` (mixture of isomers) [Cpd. No. 366, rac-(1S,2R)-2-(1-(1-((1-(4-cyanophenyl)azetidin-3-yl)methyl)piperidin-4-yl)-2-(1H-imidazol-1-yl)-1-phenylethyl)cyclopentyl methylcarbamate], the IC50 worked out at 0.009 µM on menin protein (FP competitive binding, menin protein 4 nM, FAM-MM2 probe 2 nM, read-out: Menin Binding Affinity IC50); 0.14 µM in assay [1] (setting [2]); 0.035 µM in assay [1] (setting [3]). Moreover, the MEIS1 gene expression entry in the assay with MOLM-13 cells (40 hours of treatment), in the assay on MOLM-13 cells (66 hours of treatment), with MOLM-13 cells (4 days of treatment), in the assay on MV4-11 cells (40 hours of treatment) and in the assay on MV4-11 cells (4 days of treatment) was “reduced” throughout. In addition, the “all the tested HOX genes (HOX7, HOX9, HOX10, HOX11) expression” value with MOLM-13 cells (40 hours of treatment, dose dependent) is listed as “reduces”. The ITGAM gene expression entry in the assay with MOLM-13 cells (66 hours of treatment) is “not effect”. Also, the HOX7 gene expression entry in the assay with MOLM-13 cells (setting [5]) is recorded as “reduced”; in the assay on MOLM-13 cells (setting [4]) it was “reduced”; with MV4-11 cells (40 hours of treatment) it was “Neither Cpd. No. 366 nor Cpd. No. 215 showed an effect”; with MV4-11 cells (4 days of treatment), “not as robust as those of HOX10”. Also, the HOX10 gene expression entry in the assay on MOLM-13 cells (setting [5]) is “reduced”; in the assay on MOLM-13 cells (setting [4]), “reduced”; with MV4-11 cells (40 hours of treatment), “significantly reduced”; with MV4-11 cells (setting [4]), “reduced”. The MYB gene expression entry in the assay with MOLM-13 cells (4 days of treatment, high concentration) was “may reduce”; with MV4-11 cells (4 days of treatment), “no effect”. Moreover, the HOX11 gene expression entry in the assay with MV4-11 cells (40 hours of treatment) is given as “significantly reduced”.
